Test system: 855422-203-R-J1-PDC spheroids with HUVEC/MSC, viability
Assay: Anticancer human tumor 855422-203-R-J1-PDC patient-derived bladder carcinoma cell line growth inhibition [PI3K]
Details: for IC50: curve of first compound; for viability, T/C: stronger effect = lower value
In short: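 Tumor cells grown as multi-cell spheroids with HUVEC endothelial cells and MSC fibroblast-like stroma were treated with targeted agents combined with inavolisib, alpelisib, duvelisib or copanlisib. Doses fell in half-log steps from near clinical Cmax, else from 10 microM. Viability was measured.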

[1] = second compound 0.0316 µM, first compound 0.0316 µM
[2] = second compound 0.0316 µM, first compound 0.1 µM
[3] = second compound 0.0316 µM, first compound 0.316 µM
[4] = second compound 0.0316 µM, first compound 1 µM
[5] = second compound 0.0316 µM, first compound 3.16 µM
[6] = second compound 0.0316 µM, first compound 10 µM
[7] = second compound 0.1 µM, first compound 0.0316 µM
[8] = second compound 0.1 µM, first compound 0.1 µM
[9] = second compound 0.1 µM, first compound 0.316 µM
[10] = second compound 0.1 µM, first compound 1 µM
[11] = second compound 0.1 µM, first compound 3.16 µM
[12] = second compound 0.1 µM, first compound 10 µM
[13] = second compound 0.316 µM, first compound 0.0316 µM
[14] = second compound 0.316 µM, first compound 0.1 µM
[15] = second compound 0.316 µM, first compound 0.316 µM
[16] = second compound 0.316 µM, first compound 1 µM
[17] = second compound 0.316 µM, first compound 3.16 µM
[18] = second compound 0.316 µM, first compound 10 µM
[19] = second compound 1 µM, first compound 0.0316 µM
[20] = second compound 1 µM, first compound 0.1 µM
[21] = second compound 1 µM, first compound 0.316 µM
[22] = second compound 1 µM, first compound 1 µM
[23] = second compound 1 µM, first compound 3.16 µM
[24] = second compound 1 µM, first compound 10 µM
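Also: agents incubated with spheroids for one week before read-out.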
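For viability, T/C in this document: 100% = DMSO vehicle-treated control wells.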

SMILES: CC(C)NCC(C(=O)N1CCN(c2ncnc3c2C(C)CC3O)CC1)c1ccc(Cl)cc1 (stereo unspecified) + COc1c(OCCCN2CCOCC2)ccc2c3n(c(=NC(=O)c4cnc(N)nc4)nc12)CCN3
- IC50 (second compound 0.00316 µM): 1130 nM
- IC50 (second compound 0.01 µM): 1920 nM
- IC50 (second compound 0.0316 µM): 969 nM
- IC50 (second compound 0.1 µM): < 31.6 nM
- IC50 (second compound 0.316 µM): < 31.6 nM
- IC50 (second compound 1 µM): < 31.6 nM
- viability, T/C (second compound 0.00316 µM, first compound 0.0316 µM): 108%
- viability, T/C (second compound 0.00316 µM, first compound 0.1 µM): 62%
- viability, T/C (second compound 0.00316 µM, first compound 0.316 µM): 71.9%
- viability, T/C (second compound 0.00316 µM, first compound 1 µM): 57.4%
- viability, T/C (second compound 0.00316 µM, first compound 3.16 µM): 41%
- viability, T/C (second compound 0.00316 µM, first compound 10 µM): 18.8%
- viability, T/C (second compound 0.01 µM, first compound 0.0316 µM): 79%
- viability, T/C (second compound 0.01 µM, first compound 0.1 µM): 73.3%
- viability, T/C (second compound 0.01 µM, first compound 0.316 µM): 67%
- viability, T/C (second compound 0.01 µM, first compound 1 µM): 62%
- viability, T/C (second compound 0.01 µM, first compound 3.16 µM): 42%
- viability, T/C (second compound 0.01 µM, first compound 10 µM): 15.5%
- viability, T/C [1]: 63.3%
- viability, T/C [2]: 64.3%
- viability, T/C [3]: 55.6%
- viability, T/C [4]: 51.3%
- viability, T/C [5]: 23%
- viability, T/C [6]: 12.6%
- viability, T/C [7]: 30.3%
- viability, T/C [8]: 30.1%
- viability, T/C [9]: 35.3%
- viability, T/C [10]: 24.7%
- viability, T/C [11]: 15.5%
- viability, T/C [12]: 6.96%
- viability, T/C [13]: 11.1%
- viability, T/C [14]: 10.8%
- viability, T/C [15]: 11.4%
- viability, T/C [16]: 10.5%
- viability, T/C [17]: 6%
- viability, T/C [18]: 3.59%
- viability, T/C [19]: 5.39%
- viability, T/C [20]: 4.74%
- viability, T/C [21]: 4.07%
- viability, T/C [22]: 4.44%
- viability, T/C [23]: 2.79%
- viability, T/C [24]: 1.58%

SMILES: Cn1cnc2c(F)c(Nc3ccc(Br)cc3Cl)c(C(=O)NOCCO)cc21 + COc1c(OCCCN2CCOCC2)ccc2c3n(c(=NC(=O)c4cnc(N)nc4)nc12)CCN3
- IC50 (second compound 0.00316 µM): 2440 nM
- IC50 (second compound 0.01 µM): 1570 nM
- IC50 (second compound 0.0316 µM): 283 nM
- IC50 (second compound 0.1 µM): < 9.49 nM
- IC50 (second compound 0.316 µM): < 9.49 nM
- IC50 (second compound 1 µM): < 9.49 nM
- viability, T/C (second compound 0.00316 µM, first compound 0.00949 µM): 94.1%
- viability, T/C (second compound 0.00316 µM, first compound 0.03 µM): 88.1%
- viability, T/C (second compound 0.00316 µM, first compound 0.0949 µM): 91.4%
- viability, T/C (second compound 0.00316 µM, first compound 0.3 µM): 93.5%
- viability, T/C (second compound 0.00316 µM, first compound 0.949 µM): 90.1%
- viability, T/C (second compound 0.00316 µM, first compound 3 µM): 41.2%
- viability, T/C (second compound 0.01 µM, first compound 0.00949 µM): 73.6%
- viability, T/C (second compound 0.01 µM, first compound 0.03 µM): 90.6%
- viability, T/C (second compound 0.01 µM, first compound 0.0949 µM): 82%
- viability, T/C (second compound 0.01 µM, first compound 0.3 µM): 85.9%
- viability, T/C (second compound 0.01 µM, first compound 0.949 µM): 66.2%
- viability, T/C (second compound 0.01 µM, first compound 3 µM): 29.1%
- viability, T/C (second compound 0.0316 µM, first compound 0.00949 µM): 64%
- viability, T/C (second compound 0.0316 µM, first compound 0.03 µM): 64%
- viability, T/C (second compound 0.0316 µM, first compound 0.0949 µM): 60.8%
- viability, T/C (second compound 0.0316 µM, first compound 0.3 µM): 47.1%
- viability, T/C (second compound 0.0316 µM, first compound 0.949 µM): 34.6%
- viability, T/C (second compound 0.0316 µM, first compound 3 µM): 12.7%
- viability, T/C (second compound 0.1 µM, first compound 0.00949 µM): 30.8%
- viability, T/C (second compound 0.1 µM, first compound 0.03 µM): 26.1%
- viability, T/C (second compound 0.1 µM, first compound 0.0949 µM): 22.2%
- viability, T/C (second compound 0.1 µM, first compound 0.3 µM): 21.8%
- viability, T/C (second compound 0.1 µM, first compound 0.949 µM): 10.2%
- viability, T/C (second compound 0.1 µM, first compound 3 µM): 2.98%
- viability, T/C (second compound 0.316 µM, first compound 0.00949 µM): 8.62%
- viability, T/C (second compound 0.316 µM, first compound 0.03 µM): 6.53%
- viability, T/C (second compound 0.316 µM, first compound 0.0949 µM): 5.43%
- viability, T/C (second compound 0.316 µM, first compound 0.3 µM): 4.82%
- viability, T/C (second compound 0.316 µM, first compound 0.949 µM): 2.2%
- viability, T/C (second compound 0.316 µM, first compound 3 µM): 0.34%
- viability, T/C (second compound 1 µM, first compound 0.00949 µM): 3.01%
- viability, T/C (second compound 1 µM, first compound 0.03 µM): 3.36%
- viability, T/C (second compound 1 µM, first compound 0.0949 µM): 1.65%
- viability, T/C (second compound 1 µM, first compound 0.3 µM): 2.9%
- viability, T/C (second compound 1 µM, first compound 0.949 µM): 0.38%
- viability, T/C (second compound 1 µM, first compound 3 µM): 0.99%

SMILES: CC1(C)CCC(Nc2ncc(C(F)(F)F)c(-c3c[nH]c4c(P(C)(C)=O)c(C#N)ccc34)n2)CN1 (stereo unspecified) + CC(Nc1ncnc2nc[nH]c12)c1cc2cccc(Cl)c2c(=O)n1-c1ccccc1
- IC50 (second compound 0.0316 µM): < 31.6 nM
- IC50 (second compound 0.1 µM): < 31.6 nM
- IC50 (second compound 0.316 µM): < 31.6 nM
- IC50 (second compound 1 µM): < 31.6 nM
- IC50 (second compound 3.16 µM): < 31.6 nM
- IC50 (second compound 10 µM): < 31.6 nM
- viability, T/C [1]: 30.3%
- viability, T/C [2]: 24.1%
- viability, T/C [3]: 25%
- viability, T/C [4]: 26.8%
- viability, T/C [5]: 28.9%
- viability, T/C [6]: 3.47%
- viability, T/C [7]: 27.4%
- viability, T/C [8]: 25%
- viability, T/C [9]: 24.6%
- viability, T/C [10]: 27%
- viability, T/C [11]: 30.2%
- viability, T/C [12]: 5.41%
- viability, T/C [13]: 27.2%
- viability, T/C [14]: 24.9%
- viability, T/C [15]: 23.8%
- viability, T/C [16]: 27.5%
- viability, T/C [17]: 31.6%
- viability, T/C [18]: 4.23%
- viability, T/C [19]: 24.2%
- viability, T/C [20]: 28.2%
- viability, T/C [21]: 27.2%
- viability, T/C [22]: 26.7%
- viability, T/C [23]: 26%
- viability, T/C [24]: 5.15%
- viability, T/C (second compound 3.16 µM, first compound 0.0316 µM): 23%
- viability, T/C (second compound 3.16 µM, first compound 0.1 µM): 23.1%
- viability, T/C (second compound 3.16 µM, first compound 0.316 µM): 24.6%
- viability, T/C (second compound 3.16 µM, first compound 1 µM): 23.9%
- viability, T/C (second compound 3.16 µM, first compound 3.16 µM): 26.6%
- viability, T/C (second compound 3.16 µM, first compound 10 µM): 2.74%
- viability, T/C (second compound 10 µM, first compound 0.0316 µM): 23.8%
- viability, T/C (second compound 10 µM, first compound 0.1 µM): 21.4%
- viability, T/C (second compound 10 µM, first compound 0.316 µM): 18.8%
- viability, T/C (second compound 10 µM, first compound 1 µM): 23.7%
- viability, T/C (second compound 10 µM, first compound 3.16 µM): 18.9%
- viability, T/C (second compound 10 µM, first compound 10 µM): 1.26%
